# Source: US20180353445A1, “METHODS AND COMPOSITIONS RELATING TO PROTEASOME INHIBITOR RESISTANCE” (Whitehead Institute for Biomedical Research, priority 2017, published 2018)
# Entries after “also recorded” stand apart in the source; their conditions may differ.
# Tests used:
# [1] = test system: T47D cells harboring a doxycycline inducible PSMD2 KD shRNA construct; test: Viability of PSMD2 knockdown versus control T47D cells, dose response and combinations (CellTiter-Glo); type: cell-based, human; settings: for sensitivity of PSMD2 KD cells versus control cells (cell viability): 1 ug/ml doxycycline 72 h, viability 72 hours after addition, CellTiter-Glo
# Procedure: Cell viability was measured by CellTiter-Glot Luminescent Cell Viability Assay 72 hours after addition of the compounds to cells.
# Cell viability was measured by CellTiter-Glo® Luminescent Cell Viability Assay 72 hours after addition of the compounds were added to cells.
# Cell viability was measured by CellTiter-Glolk Luminescent Cell Viability Assay 72 hours after addition of the compounds to cells.
# To directly test whether altered cellular metabolism can modulate the sensitivity of cancer cells to proteasome inhibitors, we engineered the breast cancer cell line T47D into Lo19S and increased OXPHOS states. Initially, we reconstituted the Lo19S state by transient suppression of the PSMD2 subunit of the 19S complex using an inducible shRNA.
# To induce a high OXPHOS (Hi-OXPHOS) state, we changed the carbon source in the cell culture media from glucose to galactose, which is poorly fermentable. This method has been previously shown to drive glutamine utilization by mitochondria and to thus increase mitochondrial respiration (Gohil et al., 2010). […] We reasoned that the Hi-OXPHOS signature we identified in Lo19S patient tumors may cooperate with the Lo19S state to further promote the ability of the cells to withstand proteotoxic stress.
# Cell viability—where indicated relative cell number following different drug treatment was conducted by plating cells at 1000 cells/well in 384 well plates. Indicated concentrations of compounds were added 24 hour after plating at least in triplicate for each condition. Viability was measured 72 hours after drug addition using cell titer-glo (Promega) according to manufactures protocol. Same protocol was applied for the experiments conducted for the Lo19S T47D, MCF7 and T47D in the context of altered carbon source only the cells were plated at 1000 cells/well in RPMI media (without glucose and with dialyzed serum) containing either 10 mM Glucose or lOmM galactose.
# MM.1.S xenograft = test: Disseminated (orthotopic) multiple myeloma MM.1.S xenograft model and survival study; type: in vivo, mouse; settings: for effect on tumor burden / tumor progression (BLI) / median OS: SCID mice, MM.1.S; for effect on tumor burden / tumor progression (BLI): bioluminescence imaging; for median OS: control median OS 36
# Procedure: To test this hypothesis, we established an orthotopic luciferized MM.1.S xenograft model by intravenous injection of MM.1.S cells into severe combined immunodeficient (SCID) mice. After engraftment, the mice were randomized into treatment groups, each carrying equivalent tumor burdens based on bioluminescence imaging (BLI). Mice were then treated with either vehicle alone, bortezomib, elesclomol or with the two drugs in combination.
# GFP^+/Luc^+MM.1S cells were generated by retroviral transduction of the human MM1.S that was purchased from ATCC (Manassas, Va., USA)., using the pGC-GFP/Luc vector. Cells were authenticated by short tandem repeat DNA profiling.
# Disseminated Multiple Myeloma Animal model and survival study—A total of 25 Female SCID-beige mice at 4-6 weeks of age (Taconic, USA) were utilized for the study. Tumors cells (3 million […] MM1S cells/mouse) were introduced into mice via intravenous injection and were allowed to grow until the LUC signal from their tumors reached 1×10^7 radians (photons/sec/cm^2/surface area). Tumor growth was monitored weekly by bioluminescence imaging (BLI), using an IVIS Spectrum-bioluminescent and fluorescent imaging system (Perkins Elmer). Mice were randomly attributed a group of treatment (n=5 per group). Control group was IV injected once a week 200 uL saline solution; Bortezomib (0.25 mg/kg, 100 uL) was IP injected first day of the week, once a week until death of the animal. Elesclomol (25 mg/kg, 100 uL) was subcutaneously injected every 3rd day of the week until death of the animal. Elesclomol+Bortezomib group were treated similarly to previous groups. The delayed group started the elesclomol treatment 14 days after the inclusion of the animal in the study. Endpoint of the study was dictated by either limb-paralysis of the animal or severe toxicity induced by the treatment as per Dana-Farber Animal policy.
# T47D cells = test: The glucose/galactose drug screen; type: cell-based, human; settings: for relative viability change of cells grown in glucose versus galactose: 10 mM Glucose or Galactose, Selleck anti cancer and natural product libraries
# cancer cell lines (GDSC) = test: Genomics of Drug Sensitivity in Cancer (GDSC) data analysis, IC50 of bortezomib and MG132 vs 19S expression / sigma score; type: cell-based, human; settings: GDSC database
# Source text: In some aspects, whether a cancer cell is considered resistant or sensitive to a particular agent may be determined by comparing the IC50 of the agent for the cancer cell with the IC50 of the agent as measured for each cell line in a panel of diverse cancer cell lines. Cancer cells for which the agent has an IC50 in the 10th percentile of IC50 values determined for the agent on a diverse panel of cancer cell lines may be considered sensitive, while cancer cells for which the agent has an IC50 in the 90th percentile of IC50 values determined for the agent on a diverse panel of cancer cell lines may be considered resistant to the agent.
# We asked if this might correlate with changes in 19S subunit expression. We analyzed the Genomics of Drug Sensitivity in Cancer (GDSC) database, a public resource of transcriptional data and drug responsiveness collected from a spectrum of human cancer cell lines with diverse tissue origins and diverse oncogenic lesions (Garnett et al., 2012). […]
# Further details of methods used in GDSC dataset analysis: Gene expression and drug sensitivity data was downloaded from the World Wide Web at subdomain cancerrxgene.org. […] For each proteasomal subunit gene, a-score was calculated for each cell line. […] P-values were calculated by t-test, comparing the logEC50s between the 3 sigma and not 3 sigma.
# cancer cells = test: Cell viability, elesclomol and elesclomol analogs (cell titer-glo); type: cell-based; settings: across a variety of tumor types
# Source text: In addition to the intrinsic sensitivity of certain cancer cells to elesclomol, as our drug screen indicated, the sensitivity of cancer cells to elesclomol can be further enhanced by forcing them into a Hi-OXPHOS state.
# We examined several elesclomol analogs (FIG. 57B) to determine the structural features that are important for mediating its cytotoxicity. […] Substitution of oxygen for even one of the sulfur groups (compound-5) reduced the activity of elesclomol by 300 fold. The loss of activity was even more pronounced (>>300 fold) when both sulfurs were substituted (compound-6) (FIGS. 51C-51D, FIG. 57C). Various other modifications to the elesclomol scaffold were tolerated, as long as the core sulfur geometry remained intact.
# Cell viability—where indicated relative cell number following different drug treatment was conducted by plating cells at 1000 cells/well in 384 well plates. Indicated concentrations of compounds were added 24 hour after plating at least in triplicate for each condition. Viability was measured 72 hours after drug addition using cell titer-glo (Promega) according to manufactures protocol. […]
Structure (SMILES),sensitivity of PSMD2 KD cells versus control cells (cell viability) [1],"increase in the EC90 on combining the Lo19S and Hi-OXPHOS states ([1]; T47D, PSMD2 suppression plus galactose medium) [fold]","increase of proliferation inhibition EC50 on inducing the Lo19S state ([1]; T47D, transient PSMD2 suppression versus control) [fold]",effect on tumor burden / tumor progression (BLI) (MM.1.S xenograft),median OS (MM.1.S xenograft),relative viability change of cells grown in glucose versus galactose (T47D cells),average IC50 value in 3-Sigma cell lines vs all other lines (cancer cell lines (GDSC)),inhibition of cancer cell growth (cancer cells),effect on survival (MM.1.S xenograft; versus control),number of concentrations at which respiring cells were preferentially targeted (T47D cells; galactose versus glucose) [concentrations]
"CC1(C)CCC(c2ccc(Cl)cc2)=C(CN2CCN(c3ccc(C(=O)NS(=O)(=O)c4ccc(N[C@H](CCN5CCOCC5)CSc5ccccc5)c(S(=O)(=O)C(F)(F)F)c4)cc3)CC2)C1 [ABT-263, navitoclax]","more sensitive; also recorded: not sufficient, however, to induce a profound sensitization",–,–,–,–,–,–,–,–,–
CC(C)C[C@H](NC(=O)[C@H](Cc1ccccc1)NC(=O)c1cnccn1)B(O)O [bortezomib],increase in resistance,50,~4,modest effects on tumor burden,40,strongest hits in this screen,considerably higher,–,–,–
CN(NC(=O)CC(=O)NN(C)C(=S)c1ccccc1)C(=S)c1ccccc1 [elesclomol],–,–,–,modest effects on tumor burden,39,cells that respire are predominantly sensitive; also recorded: preferentially targeted respiring cells; also recorded: more potent in cells in the Hi-OXPHOS state,–,potent inhibitor of cancer cell growth,modestly but significantly increased survival,5
